# Assay results from ChEMBL document CHEMBL4507299, “Data for DCP probe PF-04554878” (2021).
# Legend:
# [1] = biological target: T1, Serine/threonine-protein kinase TAO3 (Homo sapiens) (UniProt Q9H2K8)
# T1 sequence (whole entry): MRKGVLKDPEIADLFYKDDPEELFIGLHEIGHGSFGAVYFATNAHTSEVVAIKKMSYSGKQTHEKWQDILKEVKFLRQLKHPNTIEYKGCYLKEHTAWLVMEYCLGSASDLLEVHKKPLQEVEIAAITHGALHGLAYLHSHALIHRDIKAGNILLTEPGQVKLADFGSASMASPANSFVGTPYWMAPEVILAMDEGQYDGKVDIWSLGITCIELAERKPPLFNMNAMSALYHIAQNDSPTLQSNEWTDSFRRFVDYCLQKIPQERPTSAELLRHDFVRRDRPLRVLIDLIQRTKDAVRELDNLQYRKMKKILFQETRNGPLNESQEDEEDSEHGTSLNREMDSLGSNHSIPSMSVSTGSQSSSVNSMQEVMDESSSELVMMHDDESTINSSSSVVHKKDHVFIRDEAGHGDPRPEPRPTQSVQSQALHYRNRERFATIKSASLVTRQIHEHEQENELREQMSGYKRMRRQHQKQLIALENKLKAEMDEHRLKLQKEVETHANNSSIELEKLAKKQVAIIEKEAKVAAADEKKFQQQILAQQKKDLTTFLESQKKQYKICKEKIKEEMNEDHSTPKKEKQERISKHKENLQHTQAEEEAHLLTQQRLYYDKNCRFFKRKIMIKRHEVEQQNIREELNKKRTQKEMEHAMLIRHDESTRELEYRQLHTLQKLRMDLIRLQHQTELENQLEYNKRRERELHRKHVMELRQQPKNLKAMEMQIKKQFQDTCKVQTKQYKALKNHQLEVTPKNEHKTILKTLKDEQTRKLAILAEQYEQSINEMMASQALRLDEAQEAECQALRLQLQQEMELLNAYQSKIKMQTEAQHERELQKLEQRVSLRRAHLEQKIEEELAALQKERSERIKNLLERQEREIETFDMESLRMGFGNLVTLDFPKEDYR
# [2] = biological target: Hepatocyte growth factor receptor (Homo sapiens) (UniProt P08581)
# [3] = biological target: Proto-oncogene tyrosine-protein kinase receptor Ret (Homo sapiens) (UniProt P07949)
# [4] = biological target: Serine/threonine-protein kinase 38-like (Homo sapiens) (UniProt Q9Y2H1)
# [5] = biological target: Casein kinase II subunit alpha' (Homo sapiens) (UniProt P19784)
# [6] = biological target: Serine/threonine-protein kinase STK11 (Homo sapiens) (UniProt Q15831)
# [7] = test system: Receptor-type tyrosine-protein kinase FLT3 (Homo sapiens), P36888 [K663Q]
# [8] = test system: Receptor-type tyrosine-protein kinase FLT3 (Homo sapiens), P36888 [UNDEFINED MUTATION]
# [9] = biological target: Serine/threonine-protein kinase Nek9 (Homo sapiens) (UniProt Q8TD19)
# [10] = biological target: NT-3 growth factor receptor (Homo sapiens) (UniProt Q16288)
# [11] = biological target: Serine/threonine-protein kinase/endoribonuclease IRE1 (Homo sapiens) (UniProt O75460)
# [12] = biological target: LIM domain kinase 2 (Homo sapiens) (UniProt P53671)
# [13] = biological target: Sodium-dependent serotonin transporter (Homo sapiens) (UniProt P31645); conditions: Compound concentration 10.0 uM
# [14] = biological target: Cyclin-dependent kinase 9 (Homo sapiens) (UniProt P50750)
# [15] = biological target: Proto-oncogene tyrosine-protein kinase Src (Homo sapiens, UniProt P12931)
# [16] = biological target: Tyrosine-protein kinase Yes (Homo sapiens) (UniProt P07947)
# [17] = biological target: Ephrin type-A receptor 4 (Homo sapiens) (UniProt P54764)
# [18] = test system: Epidermal growth factor receptor (Homo sapiens), P00533 [UNDEFINED MUTATION]
# [19] = biological target: Tyrosine-protein kinase SYK (Homo sapiens) (UniProt P43405)
# [20] = biological target: Tyrosine-protein kinase Fyn (Homo sapiens) (UniProt P06241)
# [21] = biological target: Dual specificity mitogen-activated protein kinase kinase 3 (Homo sapiens) (UniProt P46734)
# [22] = biological target: Calcium/calmodulin-dependent protein kinase type 1 (Homo sapiens) (UniProt Q14012)
# [23] = biological target: Ephrin type-A receptor 1 (Homo sapiens) (UniProt P21709)
# [24] = biological target: Mitogen-activated protein kinase kinase kinase 14 (Homo sapiens) (UniProt Q99558)
# [25] = biological target: Ribosomal protein S6 kinase alpha-3 (Homo sapiens) (UniProt P51812)
# [26] = biological target: Serine/threonine-protein kinase MAK (Homo sapiens) (UniProt P20794)
# [27] = biological target: Serine/threonine-protein kinase 17A (Homo sapiens) (UniProt Q9UEE5)
# [28] = test system: Tyrosine-protein kinase ABL1 (Homo sapiens), P00519 [Y253F]
# [29] = biological target: Serine/threonine-protein kinase DCLK1 (Homo sapiens) (UniProt O15075)
# [30] = biological target: Tyrosine-protein kinase ABL1 (Homo sapiens, UniProt P00519)
# [31] = test system: Epidermal growth factor receptor (Homo sapiens), P00533 [UNDEFINED MUTATION]; remark: listed apart in the source
# [32] = biological target: Phosphatidylinositol 3-kinase catalytic subunit type 3 (Homo sapiens) (UniProt Q8NEB9)
# [33] = biological target: Serine/threonine-protein kinase Nek1 (Homo sapiens) (UniProt Q96PY6)
# [34] = Compound concentration 100.0 nM
# [35] = Compound concentration 1000.0 nM
# Sequence of Epidermal growth factor receptor (Homo sapiens), P00533 [UNDEFINED MUTATION] (P00533 whole entry, looked up, change not shown): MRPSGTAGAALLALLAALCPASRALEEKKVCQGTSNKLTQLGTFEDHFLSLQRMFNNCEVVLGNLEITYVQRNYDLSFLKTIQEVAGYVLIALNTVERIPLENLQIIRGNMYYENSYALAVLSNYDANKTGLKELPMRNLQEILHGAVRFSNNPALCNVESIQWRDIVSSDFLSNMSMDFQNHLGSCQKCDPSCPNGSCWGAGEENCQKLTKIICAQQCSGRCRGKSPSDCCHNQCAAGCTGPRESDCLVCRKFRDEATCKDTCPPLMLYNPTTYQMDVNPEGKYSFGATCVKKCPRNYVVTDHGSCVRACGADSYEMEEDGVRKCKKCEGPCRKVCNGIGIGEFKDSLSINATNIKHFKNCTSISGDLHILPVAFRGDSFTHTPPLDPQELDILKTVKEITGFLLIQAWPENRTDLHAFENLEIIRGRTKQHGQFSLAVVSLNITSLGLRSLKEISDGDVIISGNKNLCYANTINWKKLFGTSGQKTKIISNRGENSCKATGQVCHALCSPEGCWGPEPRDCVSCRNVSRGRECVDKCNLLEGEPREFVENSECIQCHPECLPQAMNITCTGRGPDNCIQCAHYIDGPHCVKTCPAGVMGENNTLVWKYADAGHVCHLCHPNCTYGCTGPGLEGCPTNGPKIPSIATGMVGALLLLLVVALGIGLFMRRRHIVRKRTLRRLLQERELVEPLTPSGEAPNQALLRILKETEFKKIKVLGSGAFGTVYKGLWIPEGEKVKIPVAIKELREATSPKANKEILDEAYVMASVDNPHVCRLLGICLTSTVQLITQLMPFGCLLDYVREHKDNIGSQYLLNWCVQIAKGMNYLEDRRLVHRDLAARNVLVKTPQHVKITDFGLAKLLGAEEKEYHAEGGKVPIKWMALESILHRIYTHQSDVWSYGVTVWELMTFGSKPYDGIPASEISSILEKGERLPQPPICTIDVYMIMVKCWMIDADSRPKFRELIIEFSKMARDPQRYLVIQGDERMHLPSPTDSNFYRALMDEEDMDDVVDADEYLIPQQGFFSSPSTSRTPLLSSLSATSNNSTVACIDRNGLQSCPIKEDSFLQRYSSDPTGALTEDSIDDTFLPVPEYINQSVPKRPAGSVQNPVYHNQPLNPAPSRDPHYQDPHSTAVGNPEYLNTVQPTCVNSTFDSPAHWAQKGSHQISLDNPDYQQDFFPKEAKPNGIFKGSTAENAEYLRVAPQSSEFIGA
# Sequence of Cyclin-dependent kinase 9 (Homo sapiens) (P50750 whole entry): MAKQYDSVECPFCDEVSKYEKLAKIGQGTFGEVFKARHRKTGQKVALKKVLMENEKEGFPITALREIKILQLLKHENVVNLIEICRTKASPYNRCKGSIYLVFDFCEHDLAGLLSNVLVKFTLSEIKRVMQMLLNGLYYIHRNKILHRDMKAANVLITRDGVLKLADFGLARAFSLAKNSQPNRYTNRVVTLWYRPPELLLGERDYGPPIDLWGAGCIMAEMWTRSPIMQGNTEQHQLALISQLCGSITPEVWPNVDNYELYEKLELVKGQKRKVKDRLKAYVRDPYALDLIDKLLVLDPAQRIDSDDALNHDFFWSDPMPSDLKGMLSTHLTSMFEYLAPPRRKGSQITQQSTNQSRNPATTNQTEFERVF
# Sequence of Tyrosine-protein kinase Yes (Homo sapiens) (P07947 2-543 limits assumed): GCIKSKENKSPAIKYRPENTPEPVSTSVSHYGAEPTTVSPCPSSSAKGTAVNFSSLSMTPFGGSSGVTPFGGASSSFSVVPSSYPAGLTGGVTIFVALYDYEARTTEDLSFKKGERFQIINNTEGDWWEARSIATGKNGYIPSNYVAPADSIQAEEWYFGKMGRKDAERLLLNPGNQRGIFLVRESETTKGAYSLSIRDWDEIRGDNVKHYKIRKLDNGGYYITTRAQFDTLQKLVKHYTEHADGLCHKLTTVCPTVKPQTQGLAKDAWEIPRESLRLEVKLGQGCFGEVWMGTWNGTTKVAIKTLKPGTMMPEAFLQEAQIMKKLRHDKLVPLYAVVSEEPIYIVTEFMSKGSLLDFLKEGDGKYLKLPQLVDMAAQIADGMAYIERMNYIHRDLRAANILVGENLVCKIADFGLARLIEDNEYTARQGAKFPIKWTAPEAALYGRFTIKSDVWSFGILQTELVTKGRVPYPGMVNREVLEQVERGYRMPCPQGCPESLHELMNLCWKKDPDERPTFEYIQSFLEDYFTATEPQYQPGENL
# Sequence of Sodium-dependent serotonin transporter (Homo sapiens) (P31645 whole entry, looked up): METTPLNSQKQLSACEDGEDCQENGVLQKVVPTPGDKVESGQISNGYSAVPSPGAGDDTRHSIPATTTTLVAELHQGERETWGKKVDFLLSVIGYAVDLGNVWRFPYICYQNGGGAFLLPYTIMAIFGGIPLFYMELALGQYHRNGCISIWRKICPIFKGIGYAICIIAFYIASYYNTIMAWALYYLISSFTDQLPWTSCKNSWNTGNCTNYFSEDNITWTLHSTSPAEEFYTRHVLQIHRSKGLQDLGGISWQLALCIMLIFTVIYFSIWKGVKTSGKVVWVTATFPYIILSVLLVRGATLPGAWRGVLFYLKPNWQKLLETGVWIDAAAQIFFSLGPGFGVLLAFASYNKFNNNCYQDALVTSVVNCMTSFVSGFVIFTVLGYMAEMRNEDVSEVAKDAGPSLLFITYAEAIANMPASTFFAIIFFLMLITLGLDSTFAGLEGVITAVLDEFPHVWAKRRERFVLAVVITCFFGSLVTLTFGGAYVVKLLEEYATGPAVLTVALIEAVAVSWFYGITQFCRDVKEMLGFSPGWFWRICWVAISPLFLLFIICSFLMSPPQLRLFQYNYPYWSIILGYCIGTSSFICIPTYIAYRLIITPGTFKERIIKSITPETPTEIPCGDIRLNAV
# Sequence of Ephrin type-A receptor 1 (Homo sapiens) (P21709 whole entry): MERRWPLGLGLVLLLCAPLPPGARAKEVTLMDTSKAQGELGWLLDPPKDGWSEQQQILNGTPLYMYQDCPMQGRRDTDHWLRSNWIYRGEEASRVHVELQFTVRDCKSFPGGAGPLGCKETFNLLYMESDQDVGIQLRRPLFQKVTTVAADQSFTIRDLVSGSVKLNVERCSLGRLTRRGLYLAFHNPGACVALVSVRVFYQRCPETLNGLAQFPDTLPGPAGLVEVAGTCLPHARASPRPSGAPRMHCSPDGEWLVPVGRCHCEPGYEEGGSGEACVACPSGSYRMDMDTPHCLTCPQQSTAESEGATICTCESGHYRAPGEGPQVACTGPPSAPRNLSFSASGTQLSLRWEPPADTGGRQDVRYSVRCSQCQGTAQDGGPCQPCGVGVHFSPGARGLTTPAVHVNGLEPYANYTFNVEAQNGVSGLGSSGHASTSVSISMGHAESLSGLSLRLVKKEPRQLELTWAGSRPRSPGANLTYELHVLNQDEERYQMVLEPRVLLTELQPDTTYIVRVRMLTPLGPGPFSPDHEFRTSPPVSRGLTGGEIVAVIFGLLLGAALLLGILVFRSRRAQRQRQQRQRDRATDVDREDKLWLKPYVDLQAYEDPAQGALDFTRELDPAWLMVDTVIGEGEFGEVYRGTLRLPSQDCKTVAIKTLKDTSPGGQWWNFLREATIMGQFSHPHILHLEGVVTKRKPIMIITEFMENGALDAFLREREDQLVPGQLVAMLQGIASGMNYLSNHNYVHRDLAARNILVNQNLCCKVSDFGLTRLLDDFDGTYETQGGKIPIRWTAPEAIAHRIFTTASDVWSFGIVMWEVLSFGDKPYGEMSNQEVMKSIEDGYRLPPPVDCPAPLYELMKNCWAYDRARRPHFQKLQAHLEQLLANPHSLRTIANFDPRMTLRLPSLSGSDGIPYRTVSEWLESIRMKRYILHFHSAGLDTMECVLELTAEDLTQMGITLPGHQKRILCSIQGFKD
# Sequence of NT-3 growth factor receptor (Homo sapiens) (Q16288 32-839 limits assumed): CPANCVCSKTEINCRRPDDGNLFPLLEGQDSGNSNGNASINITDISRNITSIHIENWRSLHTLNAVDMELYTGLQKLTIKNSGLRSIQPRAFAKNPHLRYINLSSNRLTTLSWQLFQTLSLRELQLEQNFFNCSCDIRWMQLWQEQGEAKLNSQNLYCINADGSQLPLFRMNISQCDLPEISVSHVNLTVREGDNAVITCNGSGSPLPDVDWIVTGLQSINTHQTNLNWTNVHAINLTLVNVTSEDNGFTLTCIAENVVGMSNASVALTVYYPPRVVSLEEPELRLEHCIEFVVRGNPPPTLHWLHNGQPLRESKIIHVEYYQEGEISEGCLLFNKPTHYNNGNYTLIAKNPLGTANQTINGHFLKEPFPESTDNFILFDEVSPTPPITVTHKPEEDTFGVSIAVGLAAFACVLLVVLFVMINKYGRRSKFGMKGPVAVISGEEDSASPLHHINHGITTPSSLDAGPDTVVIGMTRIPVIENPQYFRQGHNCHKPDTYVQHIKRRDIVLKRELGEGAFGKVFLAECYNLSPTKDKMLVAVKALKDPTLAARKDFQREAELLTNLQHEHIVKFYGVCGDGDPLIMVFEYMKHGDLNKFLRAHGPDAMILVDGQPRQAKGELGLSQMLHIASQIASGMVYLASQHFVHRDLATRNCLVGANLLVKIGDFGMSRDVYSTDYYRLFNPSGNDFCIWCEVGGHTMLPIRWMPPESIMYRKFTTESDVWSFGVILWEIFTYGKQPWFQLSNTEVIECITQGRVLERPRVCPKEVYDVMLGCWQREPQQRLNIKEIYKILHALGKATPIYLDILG
# Sequence of Casein kinase II subunit alpha' (Homo sapiens) (P19784 whole entry, looked up): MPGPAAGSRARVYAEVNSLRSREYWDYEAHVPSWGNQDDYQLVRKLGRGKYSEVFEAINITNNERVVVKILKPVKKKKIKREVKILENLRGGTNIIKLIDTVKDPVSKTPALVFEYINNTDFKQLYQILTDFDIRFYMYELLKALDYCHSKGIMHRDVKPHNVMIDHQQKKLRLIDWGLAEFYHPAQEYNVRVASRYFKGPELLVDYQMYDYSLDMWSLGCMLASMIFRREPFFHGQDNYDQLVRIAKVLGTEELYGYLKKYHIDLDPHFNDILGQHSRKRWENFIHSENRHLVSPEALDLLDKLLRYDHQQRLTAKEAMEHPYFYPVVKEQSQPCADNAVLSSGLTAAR
smiles,measurement,setting,value
CNC(=O)c1ccc(Nc2ncc(C(F)(F)F)c(NCc3nccnc3N(C)S(C)(=O)=O)n2)cc1 [DEFACTINIB],residual activity,[1]; [34],26%
same,residual activity,[2]; [34],66%
same,residual activity,[3]; [34],60%
same,residual activity,[4]; [34],73%
same,residual activity,[5]; [34],28%
same,residual activity,[6]; [34],100%
same,residual activity,[7]; [34],21%
same,residual activity,[8]; [34],26%
same,residual activity,[9]; [34],80%
same,residual activity,[10]; [34],41%
same,residual activity,[11]; [34],75%
same,residual activity,[12]; [34],87%
same,inhibition,[13],2.45%
same,residual activity,[14]; [34],86%
same,residual activity,[15]; [34],79%
same,residual activity,[16]; [34],100%
same,residual activity,[17]; [34],99%
same,residual activity,[18]; [34],85%
same,residual activity,[19]; [34],66%
same,residual activity,[20]; [34],100%
same,residual activity,[21]; [34],48%
same,residual activity,[22]; [34],100%
same,residual activity,[23]; [34],98%
same,residual activity,[24]; [34],92%
same,residual activity,[25]; [34],100%
same,residual activity,[26]; [34],85%
same,residual activity,[27]; [34],19%
same,residual activity,[28]; [34],100%
same,residual activity,[29]; [34],99%
same,residual activity,[30]; [34],88%
same,residual activity,[31]; [34],93%
same,residual activity,[32]; [34],100%
same,residual activity,[33]; [34],75%
CN(c1ccnc(CNc2nc(Nc3ccc4c(c3)CC(=O)N4)ncc2C(F)(F)F)n1)S(C)(=O)=O [PF-00911705],residual activity,[1]; [35],12%
same,residual activity,[2]; [35],14%
same,residual activity,[3]; [35],49%
same,residual activity,[4]; [35],75%
same,residual activity,[5]; [35],6.7%
same,residual activity,[6]; [35],72%
same,residual activity,[7]; [35],16%
same,residual activity,[8]; [35],5.5%
same,residual activity,[9]; [35],63%
same,residual activity,[10]; [35],45%
same,residual activity,[11]; [35],49%
same,residual activity,[12]; [35],94%
same,inhibition,[13],33.5%
same,residual activity,[14]; [35],84%
same,residual activity,[15]; [35],60%
same,residual activity,[16]; [35],77%
same,residual activity,[17]; [35],90%
same,residual activity,[18]; [35],76%
same,residual activity,[19]; [35],5.7%
same,residual activity,[20]; [35],59%
same,residual activity,[21]; [35],58%
same,residual activity,[22]; [35],72%
same,residual activity,[23]; [35],86%
same,residual activity,[24]; [35],65%
same,residual activity,[25]; [35],85%
same,residual activity,[26]; [35],100%
same,residual activity,[27]; [35],11%
same,residual activity,[28]; [35],45%
same,residual activity,[29]; [35],57%
same,residual activity,[30]; [35],77%
same,residual activity,[31]; [35],83%
same,residual activity,[32]; [35],84%
same,residual activity,[33]; [35],51%
